# Results reported in the METLIN SMRT retention time set (Domingo-Almenara et al. 2019).
# Test: gradient 5% acetonitrile 3 min, to 50% in 2 min, to 85% in 15 min, held 3 min, 100 µL/min
# Settings: column: Zorbax Extend-C18 2.1 x 50 mm; eluents: water / acetonitrile, 0.1% formic acid
# Method in brief: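 In both positive and negative ionization mode, a quadrupole time-of-flight mass spectrometer coupled to HPLC analyzed pure standards run in mixtures of ~100 molecules. The Zorbax Extend-C18 column (2.1 × 50 mm, 1.8 μm) was operated at 100 μL/min with water and acetonitrile, each containing 0.1% formic acid. The dead volume was 40 μL and the dwell volume 900 μL. Retention time came from adduct peaks that were computationally picked and individually inspected by hand.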
row,RP-LC retention time [s],Compound
1,1080,CCc1nn2c(CNC(=O)c3ccc(C(C)C)cc3)c(-c3ccccc3)nc2s1
2,725,CC(C)n1c(N2CCN(C(=O)c3ccnn3C)CC2)cc(=O)n(C(C)C)c1=O
3,758,CCCC(CCC)C(=O)Nc1cc(-c2cn3cccnc3n2)ccc1C
4,559,O=C(NCc1ccncc1)c1csc(-c2ccc(N3CCCC3)nc2)n1
5,680,CCc1nnc(NS(=O)(=O)c2ccc(NC(=O)c3ccco3)cc2)s1
6,579,CN1CCN(S(=O)(=O)c2cccc(C#N)c2)CC1c1ccc(F)cc1 (stereo not drawn)
7,762,CCCCNC(=O)C1CC(=O)N(CCc2c[nH]c3ccc(C)cc23)C1 (stereo not drawn)
8,695,CCc1ccc(NC(=O)CSc2ccc(N3CCCC(C(=O)NC4CC4)C3)nn2)cc1 (stereo not drawn)
9,753,O=C(Cn1nc(C(=O)N2CCCC2)c2ccccc21)NCc1cccs1
10,933,O=C(Cc1ccccc1)Nc1nnc(CCSCCc2nnc(NC(=O)Cc3ccccc3)s2)s1
11,845,O=C1COc2ccc(S(=O)(=O)N3CCCC3C(=O)Nc3ccc(F)c(Cl)c3)cc2N1 (stereo not drawn)
12,788,Cn1ccc(CN2CCc3ccccc32)cc1=O
13,668,Cc1nn(C)c(C)c1S(=O)(=O)N1CCC2(CC1)c1[nH]c3ccccc3c1CCN2C
14,974,O=C(NCc1cccc(Cl)c1)c1cc(C2CC2)n2nccc2n1
15,920,Cc1ccc(CN2CCN(C3CCN(S(=O)(=O)c4cc(F)ccc4C)CC3)C(=O)C2=O)cc1
16,707,O=S(=O)(NCc1cccnc1)c1ccc(Cl)c(-c2nnc(-c3ccccc3)o2)c1
17,646,Cc1ccsc1CN1CCn2nnc(CCC(=O)N3CCCC3)c2C1
18,923,Cc1nn(CC(=O)N2CCCCC2)c(=O)c2c(-n3cccc3)n(-c3ccc(F)cc3)nc12
19,992,Cc1cccc(C(=O)Nc2cc(-c3ccsc3)no2)c1
20,739,Cc1ccn2cc(-c3ccc(NC(=O)c4ccc(C(F)(F)F)cc4)cc3)nc2n1
21,639,COc1ccc(-c2nc(C)cc(C)c2CNC(=O)CC2CCCC2)cc1
22,721,CN1C(=O)C(c2c(-c3ccc(Br)cc3)[nH]c3[nH]c(=O)[nH]c(=O)c23)c2ccccc21 (stereo not drawn)

row,RP-LC retention time [s],Compound
1,880,O=C(CN1CCc2ccccc2C1C(=O)N1CCCC1)NCc1ccc(C(F)(F)F)cc1 (stereo not drawn)
2,746,COc1cccc(C(=O)N2CCC3(CC2)NC(=O)c2ccc(Cl)cc2N3)c1
3,759,CCOC(=O)c1sc2nc(C)cc(C)c2c1NC(=O)CCS(=O)(=O)c1ccccc1
4,844,O=C(NC1CCCC1)c1ccc(Cn2nc(N3CCN(c4ccccc4)CC3)ccc2=O)o1
5,844,O=C(Cc1ccsc1)NCc1cnoc1-c1ccc(F)cc1
6,642,Cc1nc(N)nc(N)c1-c1ccc(Cl)c(Cl)c1
7,783,COc1ccc(-c2noc(C3CCCN3C(=O)c3ccc(C#N)cc3)n2)cc1OC (stereo not drawn)
8,789,Cc1ccc(NC(=O)CSc2nc(N3CCCCC3)nc3ccccc23)cc1F
9,585,CN1C(=O)c2cc(C(=O)NCCCN3CCCC3)nn2CC1(C)C(=O)NCc1ccc(F)cc1 (stereo not drawn)
10,863,CC(C)c1noc(-c2ccc(-n3cnc(C(=O)N4CCSCC4)c3)nc2)n1
11,884,O=C(NCc1ccc2c(c1)CCCN2C(=O)C1CCC1)c1cc(F)ccc1Cl
12,1050,O=c1c2ccccc2c(-c2nc(-c3ccncc3)no2)cn1-c1ccccc1
13,831,Cn1nc(-c2nc(C3CC3)no2)c2c1CCN(C(=O)c1ccc(F)c(F)c1)C2
14,1170,Cc1ccccc1-c1noc(CSc2nc3cc4c(cc3c(=O)n2CC2CCCO2)OCO4)n1 (stereo not drawn)
15,983,Cc1ccc(C)c(NC(=O)CN2C(=O)CCc3cc(S(=O)(=O)N4CCCCC4C)ccc32)c1 (stereo not drawn)
16,701,Cc1nc(N2CCN(c3ccccn3)CC2)c2c(C)c(C(=O)Nc3ccc(F)cc3F)sc2n1
17,875,Cc1oc(-c2ccc(NC(=O)c3ccc(N(C)C)cc3)cc2)nc1Cn1cccn1
18,819,COc1cccc(N2C=C(C(=O)N3CCCC3)S(=O)(=O)c3ccc(F)cc32)c1
19,965,CCCn1c(=O)sc2cc(S(=O)(=O)N3CCC(C(=O)Nc4ccccc4)CC3)ccc21
20,763,O=C(NC1CCCC1)c1nc(-c2ccnc(N3CCCCC3)c2)no1
21,683,COC(=O)c1ccc(CSc2nnc(CNC(=O)c3ccccc3)o2)o1
22,858,CC(=O)/C=C1\C(=O)N(C)c2ccccc21

row,RP-LC retention time [s],Compound
1,1020,COCCn1c(SCc2nc(-c3ccc(OC)cc3)no2)nc2cc3c(cc2c1=O)OCO3
2,665,CCc1ccc(NC(=O)N2CCC(n3cnnc3C3CC3)C2)cc1 (stereo not drawn)
3,515,O=C(NCc1cccnc1)C1(CCO)CCN(c2ncccn2)C1 (stereo not drawn)
4,815,O=C(Nc1nnc(SCc2nnc(-c3ccc4c(c3)OCO4)o2)s1)c1cccs1
5,694,O=C(NC1CC1)C1CCN(Cc2cc3ccccc3n2Cc2ccccc2)CC1
6,1000,CCCNC(=O)N(CC(=O)N1CCc2sccc2C1COc1ccc(C)cc1)CC1CCCO1 (stereo not drawn)
7,748,CCn1nc(CNC(=O)C2CCC2)c2ccccc21
8,1050,Cc1ccc(-c2ccc(=O)n(CCc3nc(-c4ccccc4)no3)n2)cc1C
9,817,Cc1cc(C)cc(Nc2nc3ccncc3n(Cc3ccccc3)c2=O)c1
10,571,Nc1nc(=O)n(C2CS[C@H](CO)O2)cc1F (stereo partly drawn)
11,816,Cc1sc2ccn(C)c(=O)c2c1C(=O)NCC1CCCCC1
12,616,CC(C)c1noc(-c2ccnc(-n3cnc(C(=O)N4CCCC4)c3)c2)n1
13,818,Clc1ccc(-c2nc3ncccn3c2Nc2ccccc2)cc1
14,650,O=C(NCCN1CCOCC1)c1csc(N2CCN(c3ccccc3)CC2)n1
15,596,COCc1noc(C2CCCCN2C(=O)c2cnccn2)n1 (stereo not drawn)
16,1060,C=Cc1ccc(Cn2nc3ccc(S(=O)(=O)N4CCC(C)CC4)cn3c2=O)cc1
17,718,CC(C)NC(=O)CCC(=O)N1CCCn2nc(-c3cn(C)c4ccccc34)cc21
18,927,O=C(CN1CCN(Cc2ccc(F)cc2Cl)C1=O)NCC1CCCCC1
19,877,Cn1nccc1-c1csc(S(=O)(=O)NC2CCCCC2)c1
20,811,O=C(NCc1ccccc1Cl)C1CC(=O)N(CCc2c[nH]c3ccc(F)cc23)C1 (stereo not drawn)
21,890,CC1Cc2ccccc2N1C(=O)CCC(=O)N1CCN(c2cc(=O)n(C(C)C)c(=O)n2C(C)C)CC1 (stereo not drawn)
22,864,COc1ccc(C(=O)Nc2nc(-c3ccc4c(c3)NC(=O)C(C)O4)cs2)cc1OC (stereo not drawn)

row,RP-LC retention time [s],Compound
1,796,O=c1ccc(-c2cccs2)nn1CCNS(=O)(=O)c1ccc(F)c(Cl)c1
2,676,CCn1c(CCNC(=O)c2ccc(F)c(Cl)c2)nc2cccnc21
3,727,CN(C)CCn1nnc2cc(-c3noc(-c4ccc(Br)cc4)n3)ccc21
4,961,COc1ccc2c(c1)CCc1sc(NC(=O)c3ccco3)nc1-2
5,1110,Cc1nn(-c2ccc(F)cc2)c2nc(N3CCCC(C(=O)NCc4ccc(F)cc4)C3)sc12 (stereo not drawn)
6,1110,CC1CCN(S(=O)(=O)c2ccc(-c3nnc(C(=O)NCc4ccccc4Cl)o3)cc2)CC1
7,716,CCC1CCCCN1C(=O)c1cnc2nc(C)ccc2c1Nc1ccc(C)c(F)c1 (stereo not drawn)
8,983,Cc1ccc(F)cc1NC(=O)c1sc(-c2cn(C)c3ncccc23)nc1C
9,991,CCn1c(=O)c(N2CCN(C(=O)Nc3ccccc3Br)CC2)nc2cccnc21
10,815,CC(=O)c1ccc(NC(=O)c2cccc(N3C(=O)NC4CC3(C)Oc3ccccc34)c2)cc1 (stereo not drawn)
11,592,COC(=O)c1c(C)[nH]c(C(=O)N2CCC(CC(=O)NCCN3CCCCC3C)CC2)c1C (stereo not drawn)
12,595,CCCn1c(CN2CCCC2)nc2cc(NC(=O)C(C)C)ccc21
13,966,CC1Oc2ccc(-c3csc(NC(=O)COc4ccc(Cl)cc4)n3)cc2NC1=O (stereo not drawn)
14,725,COC(=O)c1cc(OCC(=O)NC2CCCCC2)c2cc(OC)c(OC)cc2n1
15,859,COc1cccc(-n2c(N3CCCC(C(=O)NCc4ccccc4)C3)nc3ccsc3c2=O)c1 (stereo not drawn)
16,744,C=CCn1c(SCC#CCO)nc2ccccc2c1=O
17,978,Cc1nn2c(CNS(=O)(=O)Cc3cccc(Cl)c3)c(-c3ccccc3)nc2s1
18,863,Cc1nnc2ccc(S(=O)(=O)N(Cc3ccc(F)cc3)c3ccccc3)cn12
19,894,O=C(c1ccc2ccnc(N3CCN(c4ccc(Cl)cc4)CC3)c2c1)N1CCCCC1
20,922,CCn1ncc(Cl)c1C(=O)N1CCCC1c1cccc(F)c1 (stereo not drawn)
21,818,CCn1cc(CNC(=O)c2cc(-c3ccc4c(c3)OCO4)nc3ccccc23)c(C)n1

row,Compound,RP-LC retention time [s]
1,O=C(Nc1ccc(F)c(Cl)c1)c1c(O)c2cccnc2n(Cc2ccccc2)c1=O,1230
